Experimental data: PMC12974487, “Inhibition of FicD-mediated AMPylation and deAMPylation by isoprenoid diphosphates” (Proceedings of the National Academy of Sciences of the …, 2026)
Changes are numbered by the printed parent chain.

What was measured:
FicD = test system: FicD; set-up: method as in PMID 40036289; conditions: cited from earlier work
FicD^L258D = molecular target: T1, FicD^L258D (Homo sapiens, UniProt Q9BVA6, L258D); test: MIDAS metabolite screen, FicD^L258D; type: binding; conditions: cutoff Q < 0.05 and |Log2 corrected fold change| > 2, metabolites 5 µM
T1 construct: soluble ER luminal domain (residues 105 to 458) of wild-type human FicD and three mutants; 6xHis-Sumo (N, cleaved yes); made in house; host or cells: Rosetta(DE3) E. coli
T1 sequence (Q9BVA6 105-458 L258D): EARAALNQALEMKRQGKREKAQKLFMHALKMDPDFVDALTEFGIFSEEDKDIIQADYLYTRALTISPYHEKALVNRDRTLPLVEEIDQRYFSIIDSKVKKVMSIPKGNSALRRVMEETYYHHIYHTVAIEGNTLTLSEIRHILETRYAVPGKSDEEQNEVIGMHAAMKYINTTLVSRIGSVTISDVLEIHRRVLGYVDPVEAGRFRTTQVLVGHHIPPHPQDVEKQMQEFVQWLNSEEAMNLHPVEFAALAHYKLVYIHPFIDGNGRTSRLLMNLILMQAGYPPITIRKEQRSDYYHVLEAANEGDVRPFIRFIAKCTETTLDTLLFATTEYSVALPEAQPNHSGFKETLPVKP
Text: (§1) To identify small-molecule metabolite interactions with FicD, we applied an unbiased high-throughput screening approach known as MIDAS ([44]). Given the high concentrations of protein required for MIDAS screening, we purified the soluble ER luminal domain (residues 105 to 458) of wild-type human FicD and three mutants FicD^E234G, FicD^L258D, and FicD^H363A for screening (Fig. 1A). These mutants were selected based on their well-established biochemical features ([23], [24], [31]). All three are predicted to enhance detection of protein–metabolite interactions (PMIs) relative to FicD^WT through increased affinity for nucleotide substrates (FicD^E234G), improved solubility (FicD^L258D), and loss of catalytic turnover (FicD^H363A) (Fig. 1A). To decrease the potential for nonspecific small-molecule binding, we ensured the purity of our FicD proteins (SI Appendix, Fig. S1 A and B). As reported by other investigators ([24], [31]), we observe an increase in elution volume of the FicD^L258D mutant, consistent with its monomerization (SI Appendix, Fig. S1C).
(§2) Out of the 602 naturally occurring human metabolites in the MIDAS library, we applied a significance cutoff (q value < 0.05) to identify 12 PMIs with a Log2 (corrected fold change) of >2 and two PMIs with a Log2 (corrected fold change) <-2 in the FicD^WT screen (Fig. 1B and SI Appendix, Table S2). Hits were additionally triaged based on detection of multiple adducts of the metabolite in a single dataset (FPP and […] in Fig. 1B) and identification of the same metabolites across three or more of the FicD construct screens (Fig. 1C). Three chemical classes passed this initial triage: adenosine nucleotides, isoprenoid diphosphates, and thyroid hormone intermediates (Fig. 1 B and C and SI Appendix, Tables S2–S5).
(§3) 22°C. Induced cultures were then harvested by centrifugation at 8000G for 15 minutes at 4°C and […]
(§4) Bacterial pellets were resuspended in 30-50mL of 50mM Tris pH 7.4/150mM NaCl/10% glycerol with one Roche cOmplete EDTA-Free Protease inhibitor cocktail tablet (cat no. COEDTAF-RO).
(§5) Triton-X100 to a final concentration of 0.2%, Chicken-egg lysozyme to a final concentration of 0.4ug/mL, and 2-5uL of Millipore Benzonase Nuclease (cat no. 70664) were added to bacterial suspension prior to sonication at 40-50% amplitude for 1-3 minutes in pulses of 5 seconds on and 30 seconds off on ice with a Sonics VCX 750 Ultrasonicator. Bacterial lysate was then clarified by centrifugation at 30,000 x g for 30 minutes at 4°C.
Clarified lysate was rotated with Qiagen NiNTA agarose beads (cat no. 30210) for 1-2 hours at 4°C. The beads were then transferred to a 15mL conical vial, resuspended in 10-15mL wash buffer (50mM Tris pH 7.4/150mM NaCl/10% glycerol/0.2% Triton-X 100/10mM imidazole), and spun down at 1000G for 1 minute at 4°C, after which the supernatant was aspirated from the beads. This washing step was repeated 2-4 times to rinse bacterial lysate from the beads prior to on-column washing. The beads were then transferred to BioRad Econopac 20mL bed volume column (cat no.
7321010) and washed with 10-15mL of wash buffer (repeated at least three times), 10mL of ATP wash (50mM Tris pH 7.4/300mM KCl/10mM MgCl2/500uM ATP, repeated once), and finally with 10-15mL wash buffer without Triton-X 100 (repeated at least three times). Protein was eluted in 500μL-1mL elution buffer (50mM Tris pH 7.5/150mM NaCl/10% glycerol/0.5% CHAPS). […]

FicD^E234G = molecular target: T2, FicD^E234G (Homo sapiens, UniProt Q9BVA6, E234G); test: MIDAS metabolite screen, FicD^E234G; type: binding; conditions: cutoff Q < 0.05 and |Log2 corrected fold change| > 2, metabolites 5 µM
T2 construct: soluble ER luminal domain (residues 105 to 458) of wild-type human FicD and three mutants; 6xHis-Sumo (N, cleaved yes); made in house; host or cells: Rosetta(DE3) E. coli
T2 sequence (Q9BVA6 105-458 E234G): T1 sequence (Q9BVA6 105-458 L258D) with E130G, D154L

FicD^H363A = molecular target: T3, FicD^H363A (Homo sapiens, UniProt Q9BVA6, H363A); test: MIDAS metabolite screen, FicD^H363A; type: binding; conditions: cutoff Q < 0.05 and |Log2 corrected fold change| > 2, metabolites 5 µM
T3 construct: soluble ER luminal domain (residues 105 to 458) of wild-type human FicD and three mutants; 6xHis-Sumo (N, cleaved yes); made in house; host or cells: Rosetta(DE3) E. coli
T3 sequence (Q9BVA6 105-458 H363A): T1 sequence (Q9BVA6 105-458 L258D) with D154L, H259A
Text: as §1, §2, §3, §4, §5
Clarified lysate was rotated with Qiagen NiNTA agarose beads (cat no. 30210) for 1-2 hours at 4°C. […]

FicD^WT = molecular target: T4, FicD^WT (Homo sapiens, UniProt Q9BVA6); test: MIDAS equilibrium dialysis/mass spectrometry metabolite screen, FicD^WT; type: binding; conditions: cutoff Q < 0.05 and |Log2 corrected fold change| > 2, metabolites 5 µM
T4 construct: soluble ER luminal domain (residues 105 to 458) of wild-type human FicD; 6xHis-Sumo (N, cleaved yes); made in house; host or cells: Rosetta(DE3) E. coli
T4 sequence (Q9BVA6 105-458): T1 sequence (Q9BVA6 105-458 L258D) with D154L

N[C@@H](Cc1cc(I)c(Oc2ccc(O)c(I)c2)c(I)c1)C(=O)O [liothyronine]
FicD inhibition reported in previous drug screens (FicD): small-molecule inhibitor of FicD

N[C@@H](Cc1ccc(Oc2ccc(O)c(I)c2)c(I)c1)C(=O)O [3,3’-Diiodothyronine]
MIDAS protein-metabolite interaction (enrichment/depletion) (FicD^L258D): significantly enriched | MIDAS protein-metabolite interaction (enrichment/depletion) (FicD^E234G): significantly enriched | MIDAS protein-metabolite interaction (enrichment/depletion) (FicD^H363A): significantly enriched | MIDAS protein-metabolite interaction (enrichment/depletion) (FicD^WT): significantly enriched
